Here are results for six compounds from US4812583A, “Substituted acyloxyalkylphenylethylene inhibitors of 3-hydroxy-3-methylglutaryl-coa reductase” (American Home Products Corporation, priority 1987, dated 1989).

Like-named read-outs stand apart in the source and are kept apart here.

One assay deals with T1, HMG-CoA Reductase (Rattus norvegicus, UniProt P51639).
T1 construct: the microsomal fraction is isolated by differential ultra centrifugation to obtain the HMG-CoA reductase enzyme; from tissue; host or cells: rat liver, microsomal fraction (cholestyramine-fed rats)
T1 sequence (P51639 1-887): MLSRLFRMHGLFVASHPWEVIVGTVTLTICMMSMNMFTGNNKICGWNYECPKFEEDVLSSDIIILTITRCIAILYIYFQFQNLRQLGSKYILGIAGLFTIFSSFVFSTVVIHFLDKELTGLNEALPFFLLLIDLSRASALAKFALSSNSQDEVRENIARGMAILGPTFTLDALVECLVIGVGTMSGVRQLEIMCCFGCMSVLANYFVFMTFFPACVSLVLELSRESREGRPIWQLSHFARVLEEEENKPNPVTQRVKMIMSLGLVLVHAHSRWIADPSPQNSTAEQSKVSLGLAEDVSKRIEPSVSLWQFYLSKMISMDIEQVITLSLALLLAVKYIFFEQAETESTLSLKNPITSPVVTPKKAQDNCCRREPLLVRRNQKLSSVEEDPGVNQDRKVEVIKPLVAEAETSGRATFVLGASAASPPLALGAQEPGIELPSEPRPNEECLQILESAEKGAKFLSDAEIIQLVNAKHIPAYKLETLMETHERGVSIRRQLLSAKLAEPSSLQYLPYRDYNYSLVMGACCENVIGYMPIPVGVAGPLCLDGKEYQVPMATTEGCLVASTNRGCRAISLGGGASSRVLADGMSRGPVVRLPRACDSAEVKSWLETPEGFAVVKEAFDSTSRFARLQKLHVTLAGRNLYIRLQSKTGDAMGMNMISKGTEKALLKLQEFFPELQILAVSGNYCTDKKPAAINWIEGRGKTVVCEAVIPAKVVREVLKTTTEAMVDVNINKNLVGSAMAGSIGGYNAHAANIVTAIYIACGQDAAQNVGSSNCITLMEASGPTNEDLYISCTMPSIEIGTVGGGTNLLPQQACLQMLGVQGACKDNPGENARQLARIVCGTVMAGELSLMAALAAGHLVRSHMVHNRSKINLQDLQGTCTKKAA
In words: Inhibition of HMG-CoA reductase (rat liver microsomal fraction, [14C] HMG-CoA). The class given is biochemical. The following applies: rat liver microsomal enzyme, pH 7.5, 37° C., 20 min. The text has this: The HMG-CoA reductase inhibitory properties of representative compounds of this invention were established by subjecting the compounds to the following standard experimental test procedure adapted from Rodwell et al., Adv. Lipid Res. 14 1, 1976; Endo et al., FEBS Letters 72 323, 1976; and Tanzawa et al., Biochemia et Biophysica Acta 488 97, 1977.
Rat livers obtained from rats fed on a diet containing 3% cholestyramine and maintained on a reverse lighting regimen for three weeks are homogenized and the microsomal fraction is isolated by differential ultra centrifugation to obtain the HMG-CoA reductase enzyme. To a preincubated (five minutes at 37° C.) solution of the compound being tested (as either the lactone and/or dihydroxy sodium carboxylate in amounts from 10^-3 to 10^-6 M) in TEDKS100 pH (Tris® 40 mM; EDTA 1 mM; dithiothreitol 5 mM; KCl 70 mM; sucrose 100 mM) 7.5 buffer or DMSO dissolved in an assay medium containing 20 μl of 2.5M KCl; 20 μl NADPH (reduced nicotinamide adenine dinucleotide phosphate) (7.5 mM); and 40 μl of labeled (RS) HMG-CoA (3-^14 C; […]; 200 μM) is added 10 μl of preincubated (five minutes at 37° C.) microsomal fraction (produced above) to obtain a total volume of 125 μl. After a twenty minute incubation period at 37° C., reaction of the enzyme is terminated by addition of 10 μl of 70% of HClO4. The assay tubes are then centrifuged for two minutes in a Beckman microfuge II.
To 100 μl of the supernatant liquid is added 10 μl of non-radioactivemevalonic acid lactone (0.25M in 8 mM H2 SO4). An aliquot of the sample is eluted with 8 mM H2 SO4 through Bio Rad Aminex HPX-87H (HPLC; Hewlett-Packard Model 1084B) at a flow rate of 1 mL/minute. The effluent is fractionated, Hydrofluor® is added and radioactivity of the [^14 C] mevalonolactone produced by reduction of [^14 C] HMG-CoA determined with a scintillation counter.
The percent inhibition of HMG-CoA reductase activity is obtained by comparison with a control assay devoid of the test compound. The inhibitory concentration (IC50) is calculated for the various test compounds.

In assay [1] the test system is biosynthesis of cholesterol. Particulars: background; cited from earlier work.
Where [2] appears, read: Dihydroxycarboxylate form (dihydroxy sodium carboxylate), read-out: Inhibition of HMG-CoA Reductase (IC50, M), Dihydroxycarboxylate.
Where [3] appears, read: Lactone form, read-out: Inhibition of HMG-CoA Reductase (IC50, M), Lactone.

For the compound `CC[C@H](C)C(=O)O[C@H]1C[C@@H](C)C=C2C=C[C@H](C)[C@H](CC[C@@H]3C[C@@H](O)CC(=O)O3)[C@H]21` [Mevinolin, reference compound], the half-maximal inhibitory concentration (IC50) (commonly the concentration needed to halve the response being measured) amounted to 5e-09 M on HMG-CoA Reductase (setting [2]) and 6e-07 M on HMG-CoA Reductase (setting [3]). In addition, in assay [1], the “inhibition of cholesterol biosynthesis, in words” value was “more effectively”.
As for `CCC(C)(C)C(=O)OCc1cc(C)cc(C)c1/C=C/[C@@H]1C[C@@H](O)CC(=O)O1` (relative stereo) [Example 4], the IC50 turned out to be 4e-05 M on HMG-CoA Reductase (setting [2]) and 5.7e-05 M on HMG-CoA Reductase (setting [3]).
The like results for `CCCC(OC(=O)C(C)(C)CC)c1cc(C)cc(C)c1/C=C/[C@@H]1C[C@@H](O)CC(=O)O1` (relative stereo) [Example 1] were, in that order, 1.7e-06 M and 2.7e-06 M.
In the case of `CC[C@H](C)C(=O)O[C@H]1CCC=C2C=C[C@H](C)[C@H](CC[C@@H]3C[C@@H](O)CC(=O)O3)[C@H]21` [compactin], the “inhibition of cholesterol biosynthesis, in words” value in assay [1] is listed as “could be inhibited”.
Take `CCCCCCCCCC(OC(=O)C(C)(C)CC)c1cc(C)cc(C)c1/C=C/[C@@H]1C[C@@H](O)CC(=O)O1` (relative stereo) [Example 2, 2,2-Dimethylbutanoic acid[4α,6β(E)]-1-[2-[2-(tetrahydro-4-hydroxy-6-oxo-2H-pyran-2-yl)ethenyl]-3,5-dimethylphenyl]decyl ester]: the IC50 on HMG-CoA Reductase (setting [2]) was greater than 0.0001 M; at HMG-CoA Reductase (setting [3]), greater than 0.001 M.
The like results for `CCC(C)(C)C(=O)OC(c1ccccc1)c1cc(C)cc(C)c1/C=C/[C@@H]1C[C@@H](O)CC(=O)O1` (relative stereo) [Example 3, 2,2-Dimethylbutanoic acid[4α,6β,(E)]-[[3,5-dimethyl-[2-[2-tetrahydro-4-hydroxy-6-oxo-2H-pyran-2-yl]ethenyl]phenyl]phenylmethyl]ester] were, in that order, 6.2e-06 M and 0.0017 M.
